In assay [1] the test system is T47D human breast cancer cells. In words: Alkaline phosphatase assay in human breast cancer cell line T47D. The note with it: 24 h, read-out: T47D IC50 (nM). The format is cell-based. How it is done:
Alkaline Phosphatase Assay in Human Breast Cancer Cell Line T47D
T47D human breast cancer cells were grown in RPMI medium without phenol red (Invitrogen) containing 10% (v/v) heat-inactivated fetal bovine serum (FBS; Hyclone), 1% (v/v) penicillin-streptomycin (Invitrogen), 1% (w/v) glutamine (Invitrogen), and […] insulin (Sigma). Incubation conditions were 37° C. in a humidified 5% (v/v) carbon dioxide environment.
The cells were plated in 96-well tissue culture plates at 10,000 cells per well in assay medium [RPMI medium without phenol red (Invitrogen) containing 5% (v/v) charcoal-treated FBS (Hyclone) and 1% (v/v) penicillin-streptomycin (Invitrogen)]. Two days later, the medium was decanted and test compound or control were added at a final concentration of 0.1% (v/v) dimethyl sulfoxide in fresh assay medium. Twenty-four hours later, an alkaline phosphatase assay was performed using a SEAP kit (BD Biosciences Clontech, Palo Alto, Calif.). Briefly, the medium was decanted and the cells were fixed for 30 minutes at room temperature with 5% (v/v) formalin (Sigma). The cells were washed once with room temperature Hank's buffered saline solution (Invitrogen). Equal volumes (0.05 mL) of 1× Dilution Buffer, Assay Buffer and 1:20 substrate/enhancer mixture were then added. After 1 hour incubation at room temperature in the dark, the lysate was transferred to a white 96-well plate (Dynex) and luminescence was read using a LuminoSkan Ascent (Thermo Electron, Woburn, Mass.).

In assay [2] the test system is A549 Human lung carcinoma cells. In words: Transient transfection and Steady Glo luciferase assay in A549 cells with dexamethasone challenge. The note with it: transfected A549 cells, challenged with dexamethasone (glucocorticoid agonist), 24 h. The assay is classed as cell-based. On the procedure:
Transient Transfection and Steady Glo Luciferase Assay
A549 Human lung carcinoma cells were grown in F-12K Nutrient Mixture containing 10% (v/v) fetal bovine serum (FBS; Invitrogen), 2 mM glutamine and 0.15% sodium dicarbonate(Invitrogen).
A549 cells were split 1 to 3 in 175 cm tissue culture flask. The cells were incubated at 37° C. in CO2 incubator until the cells were 95% confluent (typically 24-30 hours).
The following solutions were prepared in sterile tubes: (a) Solution A: 1.5 μg/ml of DNA in 8.5 ml OPTI-MEM I Reduced Serum Medium. (GIBCO cat# 31985) and (b) Solution B: 6 μl/ml of DMRIE-C Reagent into […] OPTI-MEM I. The two solutions were combined and mixed gently, then incubated at room temperature for 40 minutes.
The A549 cells prepared above were washed with […] of OPTI-MEM I. The medium was removed and 17 ml of the lipid-DNA complex solution was overlayed onto cells. The cells ere then incubated for 16 h at 37° C. in CO2 incubator. The DNA-containing medium was removed and 30 ml of growth medium was added. (5% Charcoal treated FBS) After 5-6 h, the cells were seeded in a 96 well plate and the cells incubated overnight at 37° C. in CO2 incubator.
To each well was then added 5 μl of test compounds and the cells incubated at 37° C. for 10 min. […] A 150 μL sample from each well was then transferred into a DYNEX Microlitel plate and read on Top-counter.

Each structure is given as a SMILES string. pIC50: −log10 of the molar value.

As for `C=C1CCO[C@]12CC[C@H]1[C@@H]3CCC4=CC(=O)CCC4=C3[C@@H](c3ccc(P(C)(C)=O)cc3)C[C@@]12C` [Compound 4], the IC50 (as a rule, the point on the concentration scale where inhibition reaches its midpoint) in assay [1] came to 3 nM. Take `C[C@]12C[C@H](c3ccc(P(=O)(Oc4ccccc4)Oc4ccccc4)cc3)C3=C4CCC(=O)C=C4CC[C@H]3[C@@H]1CCC2=O` [Compound 33]: in assay [2], the pIC50 – broadly, the IC50 on a negative log10 scale, so that one unit is a factor of ten – is 6.66. The IC50 in assay [1] is above 1000 nM.

Consider `C=C1CCO[C@]12CC[C@H]1[C@@H]3CCC4=CC(=O)CCC4=C3[C@@H](c3ccc(P(=O)(Oc4ccccc4)Oc4ccccc4)cc3)C[C@@]12C` [Compound 37], for which, in assay [2], the pIC50 is 7.46. Moreover, the IC50 in assay [1] came to 3.3 nM.

The values are drawn from US7678781B2, “11-phosphorous steroid derivatives useful as progesterone receptor modulators” (Janssen Pharmaceutica N.V., priority 2006, dated 2010).
